This note sets out measurements from patent publication US7875638B2, “Synthesis of epothilones, intermediates thereto, analogues and uses thereof” (Sloan-Kettering Institute for Cancer Research, priority 2002, dated 2011).

The structures appear in SMILES notation. Bounds are passed on as bounds.

Data set [1] concerns RPMI8226. Put plainly: XTT cell growth inhibition, RPMI8226. To be noted: Homo sapiens, RPMI-8226, read-out: IC50 (nM), RPMI8226. The format is cell-based. On the technique in general: Tetrazolium assays rely on reduction of a dye to a coloured formazan, in cell work by metabolically active cells.
In data set [2] the test system is caspase 3. Put plainly: Caspase 3 activation by Western blot. Format: cell-based, human. To be noted: myeloma cells. The text has this: It is not clear whether caspase is involved in this process. Firstly, we investigated the activation of caspase 3, an effector caspase in the caspase pathway, in myeloma cells, by Western blot. […] Immunohistochemical staining of CAG myeloma cells using antibody specific to cleaved caspase-3 was used to show cytoplasmic and perinuclear localization features in apoptotic cells. […] Secondly, we attempted to assay the activity of caspase 8 and 9, initiator caspase in the caspase pathway, by fluorometric method. […] Note that increased caspase 9 activity was more prominent than caspase 8. The signals triggering the activation of caspase 8 or 9 are actively under investigation.
In general terms: A western blot detects proteins with antibodies after separation by electrophoresis.

Data set [3] is described as follows: in vitro. The conditions noted are these: human, s9.
Method: Stability of epothilones in mouse and in human liver S9 fraction. The stability study was carried out with a fully automated HPLC system which consisted of a Prospekt-2 (Spark Holland, Netherlands) sample preparation system and an Agilent 1100 HPLC system. Briefly, the Prospekt 2 picked up a C8 extraction cartridge and washed it with acetonitrile and water. The Agilent autosampler, set at 37° C., picked up 20 μl of the sample, loaded it onto the cartridge, washed it with water, then the Prospekt-2 diverted the mobile phase stream through the extraction cartridge onto the analytical column, Reliance Stable Bond C8 4×80 mm with guard column (MacMod, Chadds Ford, Pa.) and the eluent was monitored at 250 nm. […] Sample preparation involved the addition of equal volumes of plasma to PBS for a total volume of 300-400 μl, filtered, and the addition of 0.5-2 μl of the substrate (20 mM) to achieve about 30-50 mAU at 250 nm in the HPLC analysis. For pooled human liver microsome S9 fraction (Xeno Tech, Lenex, Kans.), 20 μl (400 μg) or S9 fraction was mixed with 280 μl of PBS then proceeded as above. The sampling period was controlled by the autosampler and peak area data were collected to compare the rate of disappearance of the parent compound.
Stability of epothilones in mouse and in human liver S9 fraction: The stability study was carried out with a fully automated HPLC system which consisted of a Prospekt-2 (Spark Holland, Netherlands) sample preparation system and an Agilent 1100 HPLC system. Briefly, the Prospekt 2 picked up a C8 extraction cartridge and washed it with acetonitrile and water. The Agilent autosampler, set at 37° C., picked up 20 μl of the sample, loaded it onto the cartridge, washed it with water, then the Prospekt-2 diverted the mobile phase stream through the extraction cartridge onto the analytical column, Reliance Stable Bond C8 4×80 mm with guard column (MacMod, Chadds Ford, Pa.) and the eluent was monitored at 250 nm. […] Sample preparation involves the addition of equal volumes of plasma to PBS for a total volume of 400 μl, filtered, and the addition of 0.5-2 μl of the substrate (20 mM) to achieve about 30-50 mAU at 250 nm in the HPLC analysis. For pooled human liver microsome S9 fraction (Xeno Tech, Lenex, Kans.), 20 μl (400 μg) or S9 fraction was mixed with 280 μl of PBS then proceeds as above. The sampling period was controlled by the autosampler and peak area data were collected to compare the rate of disappearance of the parent compound.
The test system of data set [4] is HT-29. Put plainly: XTT cell growth inhibition, HT-29. The format is cell-based. The conditions noted are these: Homo sapiens, HT-29, read-out: IC50 (nM), HT-29.
In data set [5] the test system is primary CD138 MM cells. Put plainly: Apoptosis of primary myeloma cells. Format: cell-based, human. The conditions noted are these: cells obtained from patient marrow.
Data set [6] has as its system RPMI-8226 (human multiple myeloma cell line). Put plainly: Global gene expression (Affymetrix chip AU133 2.0). The format is cell-based.
The subject of data set [7] is HS-27A. Put plainly: XTT cell growth inhibition, HS-27A. The format is cell-based. To be noted: Homo sapiens, read-out: IC50 (nM), HS-27A.
Data set [8] relates to human lung carcinoma xenograft (A549). Put plainly: A549 xenograft in nude mice. To be noted: 29: after two more doses; dEpoB: 30 mg/kg, Q2Dx6.
The subject of data set [9] is SKOV3. Put plainly: XTT cell growth inhibition, SKOV3. The conditions noted are these: Homo sapiens, SK-OV-3, read-out: IC50 (nM), SKOV3. The format is cell-based.
The subject of data set [10] is Ovcar-4. Put plainly: XTT cell growth inhibition, Ovcar-4. Format: cell-based. The conditions noted are these: Homo sapiens, OVCAR-4, read-out: IC50 (nM), Ovcar-4.
Data set [11] concerns myeloma cell lines (RPMI8226, CAG). Put plainly: XTT cell proliferation, myeloma cell lines. To be noted: Homo sapiens, RPMI-8226, read-out: IC50, myeloma cell lines (RPMI8226, CAG). The format is cell-based, human.
In data set [12] the test system is human mammary carcinoma MX-1 xenograft. Put plainly: MX-1 xenograft in nude mice. To be noted: mouse, in vivo.
Data set [13] has as its system SKI-DLBCL. Put plainly: XTT cell growth inhibition, SKI-DLBCL. Format: cell-based. To be noted: Homo sapiens; Lymphoma; XTT tetrazonium assay.
Data set [14] relates to Ovcar-3. Put plainly: XTT cell growth inhibition, Ovcar-3. Format: cell-based. To be noted: Homo sapiens, OVCAR-3, read-out: IC50 (nM), Ovcar-3.
In data set [15] the test system is HCT-116. Put plainly: XTT cell growth inhibition, HCT-116. The format is cell-based. To be noted: Homo sapiens, HCT-116, read-out: IC50 (nM), HCT-116.
The subject of data set [16] is CAG myeloma cells. Put plainly: Disseminated CAG xenograft myeloma mice. The conditions noted are these: 20 mg/kg.
Method: 10×10^6 CAG myeloma cells engineered with Luc-eGFP-TK fusion gene were injected intravenously into the mouse-tail vein, and the treatment was started when decent myeloma cells implantation was detected by bioluminescence imaging on day 7.

For the compound `C/C1=C/CC(/C(C)=C/c2csc(C)n2)OC(=O)C[C@H](O)C(C)(C)C(=O)[C@H](C)[C@@H](O)[C@@H](C)CCC1` (stereo partly shown) [Compound 1, 12,13-desoxyepothilone B, reference compound], the concentration for half-maximal inhibition (IC50) (as a rule, the concentration needed to halve the response being measured) was 36.7 ± 2 nM in [1]; 7.2 ± 2.2 nM in data set [4]; 100 ± 10 nM in data set [7]; 13 ± 4.7 nM in [9]; 16 ± 2.5 nM in data set [10]; 0.0367 to 0.0613 µM in [11]. Further, the results for the IC50 in data set [13], in data set [14] and in data set [15] were 72 ± 9.8 nM, 14 ± 3.6 nM and 7.5 ± 3.1 nM, respectively. In data set [2], the “Cleaved caspase 3 (Western blot)” value was “increased 17 kd cleaved caspase 3”. Moreover, in [3], the half-life (in general, the time needed for the level to fall by half in the phase considered) is 1 ± 0.1 h. Moreover, the “Tumor apoptosis within 24 hrs” value in [5] is on record as “not”. For the same compound, the “Increase in expression, OAS2” value in data set [6] (6 hrs or 18 hrs of dEpoB treatment) was “+2”. Also, the “Increase in expression, MX1” value in data set [6] (18 hrs of dEpoB treatment) is “+2.3”. Besides, in data set [8], the Tumor eradication entry is “no tumor eradication”. Also, in [12], the “Changes of body weight (%) on day 4 after stopping administration” value is recorded as −25.3 ± 2.1%. For the same compound, in data set [12], the “Changes of body weight (%) on day 8 after stopping administration” value was −9.1 ± 4.1%. In addition, in data set [16], the “Survival after transplanting CAG cells (Kaplan-Meier)” value is at most 50 days. Further, in [16] (intraperitoneal), the Survival versus controls result is recorded as “no difference in survival”.
